From ChEMBL document CHEMBL1201862, “PubChem BioAssay data set” (2004)
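Each compound was tested at five concentrations against cells in 96-well plates for 48 hours. GI50 marks 50% less growth.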 Active and inactive are the calls of the source. Cut-off read from the data, not from the text of the source: active = GI50 up to about 1.1 µM and inactive = higher.

Key:
Test in all cases: inhibition of tumour cell growth, NCI panel, 48 h
CAKI-1 = test system: CAKI-1
OVCAR-3 = test system: OVCAR-3
SNB-75 = test system: SNB-75
TK-10 = test system: TK-10
CCRF-CEM = test system: CCRF-CEM
K562 = test system: K562
KM12 = test system: KM12
U-251 = test system: U-251
SF-295 = test system: SF-295
HOP-62 = test system: HOP-62
UACC-257 = test system: UACC-257
SF-539 = test system: SF-539
SW-620 = test system: SW-620
MOLT-4 = test system: MOLT-4
SR = test system: SR

Compound | GI50 (CAKI-1) | GI50 (OVCAR-3) | GI50 (SNB-75) | GI50 (TK-10) | GI50 (CCRF-CEM) | GI50 (K562) | GI50 (KM12) | GI50 (U-251) | GI50 (SF-295) | GI50 (HOP-62) | GI50 (UACC-257) | GI50 (SF-539) | GI50 (SW-620) | GI50 (MOLT-4) | GI50 (SR)
COC1OC2COC(C)(C)OC2C(OC(C)=O)C1NC(=O)N(CCCl)N=O (stereo unspecified) | > 100 µM (inactive) | > 100 µM (inactive) | 29.1 µM (inactive) | > 100 µM (inactive) | 24.3 µM (inactive) | 54.8 µM (inactive) | > 100 µM (inactive) | 33.7 µM (inactive) | 28.8 µM (inactive) | 48.1 µM (inactive) | > 100 µM (inactive) | 21.4 µM (inactive) | > 100 µM (inactive) | 59.6 µM (inactive) | –
CCOC(=O)/C(=C\c1ccc(N(CCC#N)CCC#N)cc1)NC(=O)c1cc([N+](=O)[O-])ccc1Cl | > 100 µM (inactive) | 63.4 µM (inactive) | > 100 µM (inactive) | > 100 µM (inactive) | 55.1 µM (inactive) | > 100 µM (inactive) | > 100 µM (inactive) | > 100 µM (inactive) | > 100 µM (inactive) | > 100 µM (inactive) | > 100 µM (inactive) | > 100 µM (inactive) | > 100 µM (inactive) | 72.6 µM (inactive) | –
COc1cc(/C=C/c2ccc(OC)c(OC)c2OC)cc(OC)c1OC | 25.1 µM (inactive) | 16 µM (inactive) | 10.8 µM (inactive) | 28.2 µM (inactive) | 22.4 µM (inactive) | 23.1 µM (inactive) | 22 µM (inactive) | 16.8 µM (inactive) | 20.8 µM (inactive) | 15.6 µM (inactive) | 20.9 µM (inactive) | 18.5 µM (inactive) | 29.3 µM (inactive) | 19.3 µM (inactive) | 12.2 µM (inactive)
N#Cc1c2ccccc2cn1-c1ccc(F)cc1 | 33 µM (inactive) | 19.8 µM (inactive) | 2.61 µM (inactive) | 29 µM (inactive) | 31 µM (inactive) | 26.7 µM (inactive) | 21.8 µM (inactive) | 39.1 µM (inactive) | 23.5 µM (inactive) | 23 µM (inactive) | 26.9 µM (inactive) | 24.8 µM (inactive) | 46.2 µM (inactive) | 27.4 µM (inactive) | > 10 µM (inactive)
S=c1cc(S)c2c(=S)sc3nc4ccccn4c(=S)c3c2s1 | > 100 µM (inactive) | 28.2 µM (inactive) | > 100 µM (inactive) | > 100 µM (inactive) | 32.7 µM (inactive) | 18.5 µM (inactive) | > 100 µM (inactive) | 54.5 µM (inactive) | > 100 µM (inactive) | – | – | 41 µM (inactive) | > 100 µM (inactive) | 27.2 µM (inactive) | 25.9 µM (inactive)
C/C=C(\CCOS(=O)(=O)c1ccc(C)cc1)[Si](C)(C)C | – | > 100 µM (inactive) | > 100 µM (inactive) | > 100 µM (inactive) | 0.115 µM (active) | > 100 µM (inactive) | > 100 µM (inactive) | > 100 µM (inactive) | > 100 µM (inactive) | – | > 100 µM (inactive) | > 100 µM (inactive) | > 100 µM (inactive) | > 100 µM (inactive) | > 100 µM (inactive)
Cc1ccc([S+]([O-])C(C)C(Cl)c2ccccc2)cc1 (stereo unspecified) | > 100 µM (inactive) | 53.7 µM (inactive) | 48.6 µM (inactive) | > 100 µM (inactive) | 47.6 µM (inactive) | 45.8 µM (inactive) | – | 35.6 µM (inactive) | 86.7 µM (inactive) | > 100 µM (inactive) | 34.7 µM (inactive) | > 100 µM (inactive) | > 100 µM (inactive) | 55.7 µM (inactive) | 99.3 µM (inactive)
N#CC12CCC1C1CCCCC12N1CCSCC1 (stereo unspecified) | > 100 µM (inactive) | > 100 µM (inactive) | > 100 µM (inactive) | – | > 100 µM (inactive) | 76.6 µM (inactive) | 92.3 µM (inactive) | > 100 µM (inactive) | > 100 µM (inactive) | > 100 µM (inactive) | > 10 µM (inactive) | > 100 µM (inactive) | > 100 µM (inactive) | 81.8 µM (inactive) | 60.5 µM (inactive)
Cc1cc2c([nH]c3ccccc32)c2c1OC(C)(C)C1C3CC(C)(C)Oc4c(C)cc5c6ccccc6n(c5c43)C21 (stereo unspecified) | > 100 µM (inactive) | > 100 µM (inactive) | > 100 µM (inactive) | > 100 µM (inactive) | > 100 µM (inactive) | > 100 µM (inactive) | > 100 µM (inactive) | > 100 µM (inactive) | > 100 µM (inactive) | > 100 µM (inactive) | > 100 µM (inactive) | > 100 µM (inactive) | > 100 µM (inactive) | > 100 µM (inactive) | > 100 µM (inactive)
N#Cc1c2c(c(N=[N+]=[N-])n3c1nc1ccccc13)CCCC2 | 2.72 µM (inactive) | 3.37 µM (inactive) | 1.97 µM (inactive) | 2.77 µM (inactive) | – | 2.16 µM (inactive) | 2.29 µM (inactive) | 3.39 µM (inactive) | 2.05 µM (inactive) | 16.2 µM (inactive) | 1.71 µM (inactive) | 1.93 µM (inactive) | 2.05 µM (inactive) | 1.62 µM (inactive) | 2.1 µM (inactive)
Cc1cc2c(c3nocc13)C(=O)c1ccccc1C2=O | > 100 µM (inactive) | > 100 µM (inactive) | 28.6 µM (inactive) | > 100 µM (inactive) | > 100 µM (inactive) | > 100 µM (inactive) | > 100 µM (inactive) | > 100 µM (inactive) | > 100 µM (inactive) | > 100 µM (inactive) | > 100 µM (inactive) | > 100 µM (inactive) | > 100 µM (inactive) | > 100 µM (inactive) | –
COC(=O)c1cc2c(c(C(=O)OC)c1O)C(=O)C=CC2=O | > 9.1 µM (inactive) | > 41.2 µM (inactive) | 9.95 µM (inactive) | > 39.4 µM (inactive) | 1.63 µM (inactive) | – | > 43.5 µM (inactive) | 40.7 µM (inactive) | 27 µM (inactive) | 30 µM (inactive) | > 32.8 µM (inactive) | > 41.6 µM (inactive) | – | – | –
O=C(COC(=O)c1cccc2c(=O)c3ccccc3[nH]c12)Nc1ccccc1 | 45.8 µM (inactive) | 53.2 µM (inactive) | 31.8 µM (inactive) | > 100 µM (inactive) | – | 33.2 µM (inactive) | 21.1 µM (inactive) | 71.4 µM (inactive) | 50.8 µM (inactive) | > 100 µM (inactive) | 38.2 µM (inactive) | 51.8 µM (inactive) | 90.8 µM (inactive) | 17.1 µM (inactive) | 18.9 µM (inactive)
CCOC12SC(Nc3ccc(C)cc3)=NN1C(=S)N(C)N=C2C (stereo unspecified) | – | – | > 100 µM (inactive) | – | > 100 µM (inactive) | > 100 µM (inactive) | > 100 µM (inactive) | > 100 µM (inactive) | > 100 µM (inactive) | > 100 µM (inactive) | > 100 µM (inactive) | > 100 µM (inactive) | > 100 µM (inactive) | > 100 µM (inactive) | > 100 µM (inactive)
O=C(CSc1nnc(-c2ccc(/N=C\c3ccc(Cl)cc3)cc2)o1)Nc1ccc(Cl)cc1 | – | – | > 100 µM (inactive) | > 100 µM (inactive) | > 100 µM (inactive) | > 100 µM (inactive) | > 100 µM (inactive) | > 100 µM (inactive) | > 100 µM (inactive) | > 100 µM (inactive) | > 100 µM (inactive) | – | > 100 µM (inactive) | > 100 µM (inactive) | > 100 µM (inactive)
[N-]=[N+]=NC1C(Br)C(=O)NC(=O)N1[C@H]1C[C@H](O)[C@@H](CO)O1 (stereo partly specified) | – | > 100 µM (inactive) | > 100 µM (inactive) | > 100 µM (inactive) | – | > 100 µM (inactive) | > 100 µM (inactive) | > 100 µM (inactive) | > 100 µM (inactive) | > 100 µM (inactive) | > 100 µM (inactive) | > 100 µM (inactive) | > 100 µM (inactive) | > 100 µM (inactive) | –
COc1ccc2nc(-c3ccccn3)cc(O)c2c1 | – | – | 18.4 µM (inactive) | 96.4 µM (inactive) | 51.2 µM (inactive) | 17.4 µM (inactive) | 26.7 µM (inactive) | – | – | > 100 µM (inactive) | 50.7 µM (inactive) | 30 µM (inactive) | 32 µM (inactive) | 28.8 µM (inactive) | –
N/N=c1\c2ccccc2c2cc3c(cc12)/c(=N/N)c1ccccc13 | – | – | 59.4 µM (inactive) | – | > 100 µM (inactive) | > 100 µM (inactive) | > 100 µM (inactive) | > 100 µM (inactive) | > 100 µM (inactive) | > 100 µM (inactive) | > 100 µM (inactive) | > 100 µM (inactive) | > 100 µM (inactive) | > 100 µM (inactive) | 76.2 µM (inactive)
CC[S+](C)c1ccc(-c2c3nc(c(-c4ccc([S+](C)CC)cc4)c4ccc([nH]4)c(-c4ccc([S+](C)CC)cc4)c4nc(c(-c5ccc([S+](C)CC)cc5)c5ccc2[nH]5)C=C4)C=C3)cc1.[O-][Cl+3]([O-])([O-])[O-].[O-][Cl+3]([O-])([O-])[O-].[O-][Cl+3]([O-])([O-])[O-].[O-][Cl+3]([O-])([O-])[O-] (stereo unspecified) | 39.1 µM (inactive) | 56.9 µM (inactive) | 24.3 µM (inactive) | – | 18.9 µM (inactive) | 13.9 µM (inactive) | 20.3 µM (inactive) | 16.6 µM (inactive) | 28.7 µM (inactive) | 30.1 µM (inactive) | 31 µM (inactive) | 27.4 µM (inactive) | 28.3 µM (inactive) | 20 µM (inactive) | 18.5 µM (inactive)
CNc1nnnn1C1OC(CO)C(O)C1O (stereo unspecified) | > 100 µM (inactive) | > 100 µM (inactive) | > 100 µM (inactive) | > 100 µM (inactive) | > 100 µM (inactive) | > 100 µM (inactive) | > 100 µM (inactive) | > 100 µM (inactive) | > 100 µM (inactive) | > 100 µM (inactive) | > 100 µM (inactive) | > 100 µM (inactive) | > 100 µM (inactive) | > 100 µM (inactive) | –
